The term IC50 denotes the concentration that gives 50% inhibition. Read a high IC50 as lower potency. Broadly, the inhibition is the share of the control response that was lost under treatment. Higher therefore signals a strong effect.

For this assay, the target named is T1, Human PDE7B (hPDE7B) (Homo sapiens, UniProt Q9NP56).
T1 construct: made in house; host or cells: COS-7 cells
Description: Measurement of PDE7 inhibitory activity (Experimental Example 1; residual cAMP, LANCE Ultra cAMP TR-FRET). The assay is classed as biochemical. Conditions: for IC50: cAMP 3 nmol/L, room temperature 60 minutes; for inhibition at 1 µM: compound at 1 μmol/L. Here is the method: Human PDE7B (hPDE7B) was isolated from COS-7 cells transfected with plasmids encoding hPDE7B according to the method described in a reference, Biochemical and Biophysical Research Communication, 271, p. 575-583 (2000). The resulting enzyme solution was used in the PDE assay.
PDE7 inhibitory assay was carried out by reacting the mixture of a compound, hPDE7B, and cAMP, and measuring the residual cAMP by a detection method using LANCE (registered trademark) Ultra cAMP Detection Kit (ParkinElmer). The compound was dissolved in DMSO, and diluted so that the concentration would become 50 times of the final concentration. The hPDE7B and cAMP were diluted with an assay buffer (50 mmol/L Tris-HCl, 1 mmol/L MgCl2, 0.1% BSA, 0.5 mmol/L DTT, pH7.5) so that the hPDE7B would have an appropriate enzyme activity and the concentration of cAMP would become 6 nmol/L. To a 96 well plate were added the compound (2 μL) (DMSO final concentration: 2%), hPDE7B (48 μL), and cAMP (50 μL) (concentration at the reaction: 3 nmol/L), and the resulting mixture was reacted at room temperature for 60 minutes. The reaction solution (20 μL) was subjected to a TR-FRET method according to the protocol specified by the kit to measure the concentration of the residual cAMP. In the assay, to a tracer solution specified by the kit was added 0.5 mmol/L of 3-isobutyl-1-methylxanthine (IBMX, nonselective PDE inhibitor) in order to stop the PDE enzyme reaction after the completion of reaction until the measurement.
The reaction without a compound was defined as “0% inhibition”, the reaction without hPDE7B was defined as “100% inhibition”, and the inhibition rate of the compound was calculated by the following equation.
Inhibition rate of compound (%)={(Residual cAMP concentration at the addition of compound−Residual cAMP concentration in 0% inhibition)/(Residual cAMP concentration in 100% inhibition−Residual cAMP concentration in 0% inhibition)}×100

The structures appear in SMILES notation.

T1 sequence (Q9NP56 whole entry): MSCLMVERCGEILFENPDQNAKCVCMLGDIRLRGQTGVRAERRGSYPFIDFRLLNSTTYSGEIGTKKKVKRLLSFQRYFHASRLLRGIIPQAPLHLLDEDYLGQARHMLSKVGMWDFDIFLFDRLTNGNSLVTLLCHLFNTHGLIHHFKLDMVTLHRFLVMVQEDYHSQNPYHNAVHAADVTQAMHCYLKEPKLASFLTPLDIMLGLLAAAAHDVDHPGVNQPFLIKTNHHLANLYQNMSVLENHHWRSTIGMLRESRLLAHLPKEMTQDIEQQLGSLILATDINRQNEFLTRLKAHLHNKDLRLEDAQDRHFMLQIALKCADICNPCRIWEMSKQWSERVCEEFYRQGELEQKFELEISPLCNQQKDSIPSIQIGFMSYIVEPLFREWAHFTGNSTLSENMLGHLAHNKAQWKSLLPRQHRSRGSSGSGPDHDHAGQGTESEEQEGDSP

`Nc1ncnc2c1nnn2C1CCCCC1(F)F` (single isomer, unassigned) [Example 114, 3-(2,2-difluorocyclohexyl)-3H-[1,2,3]triazolo[4,5-d]pyrimidin-7-amine] came in with an IC50 of 0.19 µM.
In turn, `CC1CCC(C(F)(F)F)CC1c1nnc2c(N)nccn12` (single isomer, unassigned) [Example 173, 3-[2-methyl-5-(trifluoromethyl)cyclohexyl][1,2,4]triazolo[4,3-a]pyrazin-8-amine] showed a half-inhibitory concentration (IC50) greater than 1 µM and an inhibition at 1 µM of 3%.
Taken in the same sequence, the figures for `CC1CCC(F)(F)CC1c1nnc2c(N)nccn12` (single isomer, unassigned) [Example 176, 3-(cis-5,5-difluoro-2-methylcyclohexyl) [1,2,4]triazolo[4,3-a]pyrazin-8-amine] were greater than 1 µM and 28%.
Taken in the same sequence, the figures for `CC1(C)CC(c2nnc3c(N)nccn23)CC(F)(F)C1` (single isomer, unassigned) [Example 178, 3-(3,3-difluoro-5,5-dimethylcyclohexyl) [1,2,4]triazolo[4,3-a]pyrazin-8-amine] were greater than 1 µM and 33%.
In turn, `CC1CCCCC1n1nnc2c(N)ncnc21` (single isomer, unassigned) [Example 190, 3-(cis-2-methylcyclohexyl)-3H-[1,2,3]triazolo[4,5-d]pyrimidin-7-amine] returned an IC50 of 0.22 µM.
Still for that read-out and setting: to `CC1CCCCC1n1nnc2c(N)ncnc21` (single isomer, unassigned) [Example 193, 3-(trans-2-methylcyclohexyl)-3H-[1,2,3]triazolo[4,5-d]pyrimidin-7-amine] belongs 0.43 µM; to `CC1CCCC(n2nnc3c(N)ncnc32)C1` (single isomer, unassigned) [Example 197, 3-(cis-3-methylcyclohexyl)-3H-[1,2,3]triazolo[4,5-d]pyrimidin-7-amine], 0.34 µM.
In the case of `CC1CCCC(n2nnc3c(N)ncnc32)C1` (single isomer, unassigned) [Example 198, 3-(trans-3-methylcyclohexyl)-3H-[1,2,3]triazolo[4,5-d]pyrimidin-7-amine], the half-inhibitory concentration (IC50) stood at 0.07 µM.
`Nc1ncnc2c1nnn2C1CCCC(C(F)F)C1` (single isomer, unassigned) [Example 201] returned an IC50 greater than 1 µM and an inhibition at 1 µM of 20%.
On the same counts, the results for `Nc1ncnc2c1nnn2C1CCCC(C(F)(F)F)C1` (single isomer, unassigned) [Example 203, 3-[cis-3-(trifluoromethyl)cyclohexyl]-3H-[1,2,3]triazolo[4,5-d]pyrimidin-7-amine] are greater than 1 µM and 27%.
On the same counts, the results for `CC1(C)CCCC(c2nnc3c(N)nccn23)C1` (single isomer, unassigned) [Example 206, 3-(3,3-dimethylcyclohexyl) [1,2,4]triazolo[4,3-a]pyrazin-8-amine] are greater than 1 µM and 44%.
Compound `Nc1nccn2c(C3CCCC4(CC4)C3)nnc12` (single isomer, unassigned) [Example 209, 3-(spiro[2,5]oct-5-yl) [1,2,4]triazolo[4,3-a]pyrazin-8-amine] had an IC50 of 0.13 µM.
As to `Nc1nccn2c(C3CCCC(C(F)(F)F)C3)nnc12` (single isomer, unassigned) [Example 211, 3-[cis-3-(trifluoromethyl)cyclohexyl][1,2,4]triazolo[4,3-a]pyrazin-8-amine], the IC50 was greater than 1 µM and the inhibition at 1 µM was 20%.
For the compound `CC1CC(c2nnc3c(N)nccn23)CC(F)(F)C1` (single isomer, unassigned) [Example 215], the IC50 amounted to 0.53 µM.
The same measure, in the same setting: under `CC1CC(c2nnc3c(N)nccn23)CC(F)(F)C1` (single isomer, unassigned) [Example 217, 3-(trans-3,3-difluoro-5-methylcyclohexyl[1,2,4]triazolo[4,3-a]pyrazin-8-amine] stands 0.1 µM.
The same measure, in the same setting: under `Nc1nccn2c(C3CCC4CC4C3)nnc12` (single isomer, unassigned) [Example 220, 3-(bicyclo[4.1.0]hept-3-yl) [1,2,4]triazolo[4,3-a]pyrazin-8-amine] stands 0.11 µM; under `CCC1CCCCN1c1nnc2c(N)nccn12` (single isomer, unassigned) [Example 223, 3-(2-ethylpiperidin-1-yl) [1,2,4]triazolo[4,3-a]pyrazin-8-amine], 0.19 µM; under `Nc1nccn2c(N3CCCC(C(F)(F)F)C3)nnc12` (single isomer, unassigned) [Example 224], 0.17 µM.
The same measure, in the same setting: under `Nc1nccn2c(N3CCCC(C(F)(F)F)C3)nnc12` (single isomer, unassigned) [Example 225] stands 0.54 µM; under `CC1CC(C)CN(c2nnc3c(N)nccn23)C1` (single isomer, unassigned) [Example 227, 3-[trans-3,5-dimethylpiperidin-1-yl][1,2,4]triazolo[4,3-a]pyrazin-8-amine], 0.19 µM; under `CC1CCN(c2nnc3c(N)nccn23)CC1C` (single isomer, unassigned) [Example 228, 3-(3,4-dimethylpiperidin-1-yl) [1,2,4]triazolo[4,3-a]pyrazin-8-amine], 0.54 µM.
In the case of `CC1CCN(c2nnc3c(N)nccn23)CC1C` (single isomer, unassigned) [Example 229, 3-(3,4-dimethylpiperidin-1-yl) [1,2,4]triazolo[4,3-a]pyrazin-8-amine], the IC50 amounted to 0.31 µM.
Same read-out and setting: under `CC1CCC(C)N(c2nnc3c(N)nccn23)C1` (single isomer, unassigned) [Example 233, 3-(2,5-dimethylpiperidin-1-yl) [1,2,4]triazolo[4,3-a]pyrazin-8-amine] stands 0.1 µM; under `CC1CCC(C)N(c2nnc3c(N)ncc(C#N)n23)C1` (single isomer, unassigned) [Example 235, 8-amino-3-(2,5-dimethylpiperidin-1-yl) [1,2,4]triazolo[4,3-a]pyrazine-5-carbonitrile], 0.016 µM; under `CC1CCC(C)(C)CN1c1nnc2c(N)nccn12` (single isomer, unassigned) [Example 237, 3-(2,5,5-trimethylpiperidin-1-yl) [1,2,4]triazolo[4,3-a]pyrazin-8-amine], 0.0028 µM.
Same read-out and setting: to `CC1CCCCC1c1nnc2c(N)ncnn12` (single isomer, unassigned) [Example 239, 3-(cis-2-methylcyclohexyl) [1,2,4]triazolo[3,4-f][1,2,4]triazin-8-amine] belongs 0.11 µM.
In the case of `CC1CCCC(c2nnc3c(N)ncnn23)C1` (single isomer, unassigned) [Example 241, 3-(cis-3-methylcyclohexyl) [1,2,4]triazolo[3,4-f][1,2,4]triazin-8-amine], inhibition was half-maximal at 0.23 µM (IC50).
In the case of `CC1(C)CCCC(c2nnc3c(N)ncnn23)C1` (single isomer, unassigned) [Example 243, 3-(3,3-dimethylcyclohexyl) [1,2,4]triazolo[3,4-f][1,2,4]triazin-8-amine], the midpoint of inhibition, the IC50, lay at 0.12 µM.
Same read-out and setting: under `Nc1ncnn2c(C3CCCC(C(F)(F)F)C3)nnc12` (single isomer, unassigned) [Example 245, 3-[cis-3-(trifluoromethyl)cyclohexyl][1,2,4]triazolo[3,4-f][1,2,4]triazin-8-amine] stands 0.85 µM; under `CC1CCC(F)(F)CC1c1nnc2c(N)ncnn12` (single isomer, unassigned) [Example 247, 3-(cis-5,5-difluoro-2-methylcyclohexyl) [1,2,4]triazolo[3,4-f][1,2,4]triazin-8-amine], 0.629 µM.
Turning to `C=C(C)[C@H]1CC[C@H](C)C(n2nnc3c(N)ncnc32)C1` (stereo in doubt) [Example 107, 3-[(1R,2S,5S)-2-methyl-5-(prop-1-en-2-yl)cyclohexyl]-3H-[1,2,3]triazolo[4,5-d]pyrimidin-7-amine], the IC50 was greater than 1 µM and the inhibition at 1 µM was 35%.
For `Nc1nc(C(F)(F)F)nc2c1nnn2C1CCCCC1` [Example 6], the IC50 is 0.34 µM.
Still for that read-out and setting: to `C[C@]1(O)CC[C@@H](n2nnc3c(N)ncnc32)CC1` [Example 9] belongs 0.89 µM.
The same measure, in the same setting: under `Nc1ncnc2c1nnn2C12CC3CC(CC(C3)C1)C2` [Example 10] stands 0.1 µM.
Same read-out and setting: under `CC(C)(C)OC(=O)N1CCCC(n2nnc3c(N)ncnc32)C1` (stereo not shown) [Example 11] stands 0.4 µM; under `CC(C)(C)OC(=O)N1CCC[C@@H](n2nnc3c(N)ncnc32)C1` [Example 12, tert-butyl (3R)-3-(7-amino-3H-[1,2,3]triazolo[4,5-d]pyrimidin-3-yl)piperidine-1-carboxylate], 0.62 µM.
`Nc1ncnc2c1nnn2-c1c(F)cccc1F` [Example 14] registered an IC50 of 0.56 µM.
On to `CC(c1ccccc1)n1nnc2c(N)ncnc21` (stereo not shown) [Example 15], for which it took 0.57 µM to reach half-maximal inhibition (IC50).

These data come from US20190185479A1, “BICYCLIC NITROGENATED HETEROCYCLIC COMPOUND” (MITSUBISHI TANABE PHARMA CORPORATION, priority 2016, published 2019).
